# Test results: patent US10300053B2, “Quinoline carboxamides for use in the treatment of leukemia” (Active Biotech AB, priority 2014, dated 2019)
# Tests used:
# [1] = system: AML; conditions: 0.2 mg/kg body weight twice weekly for 2 years following ABMT for AML in remission; cited from earlier work
# [2] = system: B-cell leukemia (BCL1) cells; conditions: BALB/c mice inoculated with BCL1 cells; cited from earlier work
# [3] = system: AL-7015-P2 leukemic cells; assay: Patient Derived Xenograft (PDX) model AL-7015 of acute lymphocytic leukemia; assay type: in vivo, NOD/SCID mice
# Procedure: Tasquinimod was tested in a Patient Derived Xenograft (PDX) model AL-7015 provided by Crown Bioscience In. (www.crownbio.com). Cells derived from a patient with B-cell ALL were used. On Day 0, NOD/SCID mice were inoculated i.v. with 70×10^6 AL-7015-P2 leukemic cells per mouse. From day 1 to termination mice were treated with tasquinimod ad lib. in the drinking water at 30 mg/kg. Mice were terminated, as soon as any sign of morbidity was observed. The median survival time for the vehicle group was 51 days, while it was 99 days for the treatment group (p<0.0001) (FIG. 2). In the treatment group, the tumor burden remained close to zero for at least 10 weeks, long after the vehicle group had reached 100% tumor burden (FIG. 3).
SMILES,benefit over placebo regarding relapse [1],benefit over placebo regarding survival [1],impact on graft survival [2],impact on graft versus leukemia (GVL) effects [2],"median survival time ([3]; 30 mg/kg ad lib. in drinking water from day 1 to termination, vehicle group 51 days, p<0.0001) [days]","tumor burden ([3]; 30 mg/kg in drinking water, for at least 10 weeks, long after the vehicle group had reached 100% tumor burden)"
"CN(C(=O)c1c(O)c2ccccc2n(C)c1=O)c1ccccc1 [Roquinimex, 4-hydroxy-N, 1-dimethyl-2-oxo-N-phenyl-1,2-dihydroquinoline-3-carboxamide]",no benefit,no benefit,no impact,no impact,–,–
"COc1cccc2c1c(O)c(C(=O)N(C)c1ccc(C(F)(F)F)cc1)c(=O)n2C [tasquinimod, 4-hydroxy-5-methoxy-N,1-dimethyl-2-oxo-N-[4-(trifluoromethyl)phenyl]-1,2-dihydroquinoline-3-carboxamide]",–,–,–,–,99,close to zero
